# Marks after values point to notes of the source that are not given here.
# Assay: Measurement of LogP values by HPLC on reversed phase columns (EEC directive 79/831 Annex V.A8)
# Type: physicochemical
# Conditions: not given
# Procedure, shortened: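 LogP measured by reversed-phase HPLC following EEC directive 79/831 Annex V.A8. Lambda-max taken from UV spectra at 200–400 nm at chromatographic peak maxima; diastereoisomer values listed separately.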
LogP,LogP [a],LogP [b],SMILES
3.55[a],,,COc1ccc(CNc2nsc(C(=O)NCCc3cccs3)c2Cl)cc1 [I-1269]
1.93[a],,,CCOc1c(N)nsc1C(=O)NCc1ccccc1F [I-730]
3.11[a],,,CCC(c1ccccc1)N(C(=O)c1snc(N)c1Cl)C1CC1 (stereo not drawn) [I-888]
3.29[a],,,CC(c1cccc(C(F)(F)F)c1)N(C(=O)c1snc(N)c1Cl)C1CC1 (stereo not drawn) [I-956]
3.27[a],,,COc1ccc(CNc2nsc(C(=O)NCc3ccc(C)o3)c2Cl)cc1 [I-674]
,3.60^[a],,O=C(NCC1CCOCC1)c1snc(N=C(c2ccccc2)c2ccccc2)c1Cl [II-006]
4.89[a],,,CCC1(CNC(=O)c2snc(NCc3ccc(OC)cc3)c2Cl)CCCCC1 [I-824]
1.87[a],,,COc1c(N)nsc1C(=O)NCC1CCCC1 [I-736]
,4.24,4.15,COc1ccc(CNc2nsc(C(=O)N3CCCc4cc(C)ccc43)c2Cl)cc1 [II-099]
4.15[a],,,COc1ccc(CNc2nsc(C(=O)Nc3cc(F)cc(F)c3)c2Cl)cc1 [I-862]
,2.88,2.82,Nc1nsc(C(=O)N2CCc3c(Cl)ccc(Cl)c3C2)c1Cl [II-022]
2.75[a],,,Nc1nsc(C(=O)Nc2cccc3c2CCC3)c1Cl [I-926]
1.82[a],,,Cc1c(N)nsc1C(=O)NCc1cc(F)cc(F)c1F [I-585]
1.36[a],,,COc1ccc(CNc2nsc(C(=O)NCCCn3ccnc3)c2Cl)cc1 [I-1244]
3.20[a],,,CCC1(CNC(=O)c2snc(N)c2Cl)CCCCC1 [I-836]
2.72[a],,,Cc1cc(F)ccc1CNC(=O)c1snc(NC(=O)C(F)(F)F)c1Cl [I-816]
2.69[a],,,Nc1nsc(C(=O)NCC2CCCCC2C(F)(F)F)c1Cl (stereo not drawn) [I-1567]
1.09[a],,,"Nc1nsc(C(=O)NCC2CCCC2O)c1Cl (single isomer, unassigned) [I-772]"
,4.20^[a],,COc1ccc(CNc2nsc(C(=O)N3CCc4c(Cl)cccc4C3)c2Cl)cc1 [II-098]

LogP,LogP [a],LogP [b],SMILES
4.35[a],,,COc1ccc(CNc2nsc(C(=O)NC3CCC4CCCC43)c2Cl)cc1 (stereo not drawn) [I-1346]
,1.57^[a],,O=C(NCc1ccc(F)cc1F)c1snc(N=S2CCCC2)c1F [II-059]
1.52[a],,,COc1ccc(CNc2nsc(C(=O)NCCc3ccccn3)c2Cl)cc1 [I-1255]
2.73[a],,,CC(c1ccccc1)N(C(=O)c1snc(N)c1Cl)C1CC1 (stereo not drawn) [I-886]
1.79[a],,,Nc1nsc(C(=O)NCc2ccccc2F)c1Br [I-832]
2.15[a],,,CCC(=O)Nc1nsc(C(=O)NCc2ccc(F)cc2C)c1Cl [I-817]
4.71[a],,,COc1ccc(CNc2nsc(C(=O)N(Cc3ccccc3C(C)C)C3CC3)c2Cl)cc1 [I-871]
,5.48^[a],,COc1ccc(CN(Cc2ccc(C)cc2)c2nscc2Cl)cc1 [Z-A-008]
3.70[a],,,CC(c1cc(Cl)cc(Cl)c1)N(C(=O)c1snc(N)c1Cl)C1CC1 (stereo not drawn) [I-952]
2.21[a],,,N#CC(NC(=O)c1snc(N)c1Br)C1CCCCC1 (stereo not drawn) [I-833]
1.41[a],,,Nc1cc(C(=O)Nc2ccccc2)sn1 [I-855]
,0.32^[a],,CS(C)=Nc1nsc(C(=O)NCC2CCCC2)c1F [II-061]
2.07[a],,,Nc1nsc(C(=O)Nc2ccc(F)cc2F)c1Cl [I-864]
1.92[a],,,Cc1c(N)nsc1C(=O)NCc1cc(F)c(F)c(F)c1 [I-584]
4.03[a],,,CCC(NC(=O)c1snc(NCc2ccc(OC)cc2)c1Cl)c1ccccc1 (stereo not drawn) [I-1265]
4.44[a],,,COc1ccc(CNc2nsc(C(=O)N(Cc3c(F)cccc3Cl)C3CC3)c2Cl)cc1 [I-933]
2.07[a],,,Nc1nsc(C(=O)NCC2CCCCC2(F)F)c1Cl (stereo not drawn) [I-1294]
2.53[a],,,COc1ccc(CNc2nsc(C(=O)NCCCn3cccn3)c2Cl)cc1 [I-1194]
4.63[a],,,COc1ccc(CNc2nsc(C(=O)Nc3ccc(C)c(Cl)c3)c2Cl)cc1 [I-882]

LogP,LogP [a],LogP [b],SMILES
5.25[a],,,CCCC(c1ccccc1)N(C(=O)c1snc(NCc2ccc(OC)cc2)c1Cl)C1CC1 (stereo not drawn) [I-899]
5.14[a],,,C[C@H](NC(=S)c1snc(NCC(F)(F)F)c1Cl)C1CCCCC1 [I-429]
,5.92^[a],,O=C(NCCC1CCCCC1)c1snc(N=C(c2ccccc2)c2ccccc2)c1Cl [II-083]
1.03[a],,,COc1ccc(CNC(=O)c2snc(N)c2Cl)cc1O [I-1568]
,1.53^[a],,O=C(NCc1cc(F)c(F)cc1F)c1snc(N=S2CCCC2)c1F [II-074]
3.72[a],,,COc1ccc(CNc2nsc(C(=O)NCCc3ccc(F)cc3)c2Cl)cc1 [I-961]
1.41[a],,,N#Cc1cccc(CNC(=O)c2snc(N)c2Cl)c1 [I-1289]
2.37[a],,,CC1CCCC(NC(=O)c2snc(N)c2Cl)C1 (stereo not drawn) [I-1563]
3.79[a],,,COc1ccc(CNc2nsc(C(=O)NC(C)c3ccccc3F)c2Cl)cc1 (stereo not drawn) [I-1212]
3.85[a],,,COc1ccc(CNc2nsc(C(=O)NCc3ccc(OC)c(C(F)(F)F)c3)c2Cl)cc1 [I-1321]
1.55[a],,,CC(C)CNC(=O)c1snc(N)c1Cl [I-1018]
2.78[a],,,COc1ccc(CNc2nsc(C(=O)NCc3ccnc(OC)c3)c2Cl)cc1 [I-1204]
2.73[a],,,Nc1nsc(C(=O)NCc2ccc(Cl)cc2)c1-c1ccc(F)cc1 [I-336]
,2.23^[a],,CCCS(C)=Nc1nsc(C(=O)NCC2CCCCC2)c1Cl (stereo not drawn) [II-089]
4.08[a],,,COc1ccc(CNc2nsc(C(=O)NCCc3ccc(Cl)cc3)c2Cl)cc1 [I-962]
2.63[a],,,Nc1nsc(C(=O)NCC2CCCCC2C(F)(F)F)c1Cl (stereo not drawn) [I-1566]
,1.82^[a],,CS(C)=Nc1nsc(C(=O)NCC2CCCCC2)c1Cl [II-032]
3.61[a],,,COc1ccc(CNc2nsc(C(=O)NC(C#N)c3ccc(F)c(F)c3)c2Cl)cc1 (stereo not drawn) [I-1326]

# The remaining lines, values behind:
SMILES,LogP,LogP [a],LogP [b]
COC(=O)Nc1nsc(C(=O)N[C@@H](C)C2CCCCC2)c1Cl [I-108],2.84[a],,
C[C@H](NC(=O)c1snc(N=CN2CCCC2)c1Cl)C1CCCCC1 [II-024],,2.73^[a],
COc1cccc(CNC(=O)c2snc(N)c2Cl)c1F [I-325],1.91[a],,
O=C(NC1CCCCC1c1ccccc1)c1snc(NC(=O)C2CC2)c1Cl (stereo not drawn) [I-302],3.19[a],,
Cc1c(N)nsc1C(=O)NCc1ccc(C#N)cc1F [I-150],1.35[a],,
C[C@H](NC(=O)c1snc(Cl)c1Cl)C1CCCCC1 [E-II-002],,4.56^[a],
C[C@H](NC(=O)c1snc(NC2CC2)c1Cl)C1CCCCC1 [I-061],3.75[a],,
C[C@H](NC(=O)c1snc(Nc2ccc(F)cc2)c1Cl)C1CCCCC1 [I-063],4.81[a],,
O=C(NCc1cccc(Cl)c1)c1cc(N(Cc2ccccc2)Cc2ccccc2)ns1 [I-283],4.71[a],,
CCc1ccccc1CN(C(=O)c1snc(N)c1Cl)C1CC1 [I-153],3.04[a],,
C[C@H](NC(=O)c1snc(Nc2ccccc2)c1Cl)C1CCCCC1 [I-064],4.78[a],,
Nc1nsc(C(=O)N(Cc2c(Cl)cccc2C(F)(F)F)C2CC2)c1Cl [I-215],3.19[a],,
CC(=O)N(C(C)=O)c1nsc(C(=O)N[C@@H](C)C2CCCCC2)c1Cl [I-094],3.73[a],,
CC1(CNC(=O)c2snc(N)c2Cl)CCCCC1 [I-086],2.84[a],,
COc1ccc(CNc2nsc(C(=O)NCC3(C)CCCCC3)c2Cl)cc1 [I-079],4.69[a],,
Nc1nsc(C(=O)NCc2ccnc(F)c2)c1Cl [I-038],1.04[a],,
COc1ccc(CNc2nsc(C(=O)NC3CCCCC3(C)C)c2Cl)cc1 (stereo not drawn) [I-075],4.64[a],,
C#CCNc1nsc(C(=O)NCc2ccccc2F)c1Cl [I-058],2.54[a],,

SMILES,LogP,LogP [a],LogP [b]
COc1ccc(Nc2nsc(C(=O)NCc3ccccc3F)c2Cl)cc1 [I-060],3.46[a],,
Cc1ccc(C(C)(C)C)c(CNC(=O)c2snc(N)c2Cl)c1 [I-329],3.46[a],,
Nc1nsc(C(=O)NCc2ccccc2Cl)c1Cl [I-009],2.12[a],,
Nc1cc(C(=O)NCc2cc(Cl)cc(Cl)c2)sn1 [I-307],2.18[a],,
Nc1nsc(C(=O)NCc2ncc(C(F)(F)F)cc2Cl)c1Cl [I-286],2.58[a],,
O=C(NCc1ccccc1F)c1snc(Nc2ccc(F)cc2)c1Cl [I-059],3.68[a],,
C[C@H](NC(=O)c1snc(N(S(C)(=O)=O)S(C)(=O)=O)c1Cl)C1CCCCC1 [I-103],3.76[a],,
CS(C)=Nc1nsc(C(=O)NCC2CCOC2)c1F (stereo not drawn) [II-071],,0.26^[a],
Cc1ccc(F)cc1CNC(=O)c1snc(N)c1Cl [I-127],2.08[a],,
Nc1nsc(C(=O)NCC2=CCCCC2)c1Cl [I-089],2.30[a],,
COc1ccc(CN(C)c2nsc(C(=O)NCc3ccccc3F)c2Cl)cc1 [I-088],4.21[a],,
Cc1c(N)nsc1C(=O)NCc1ccccc1C(F)F [I-157],1.74[a],,
N#Cc1ccc(CNC(=O)c2snc(N)c2Cl)c(F)c1 [I-202],1.64[a],,
CC1CCC(C(C)C)C(NC(=O)c2snc(Cl)c2Cl)C1 (stereo not drawn) [E-II-024],,5.72,5.64
O=C(NC(CCc1ccccc1)C1CCC1)c1snc(Cl)c1Cl (stereo not drawn) [E-II-029],,5.04,4.91
Nc1nsc(C(=O)N(Cc2ccccc2)C2CC2)c1Cl [I-183],2.41[a],,
Cc1c(N)nsc1C(=O)NCc1c(F)cccc1F [I-146],1.49[a],,

# Same assay, conditions: HPLC LC-UV, acidic range, 0.1% formic acid in water and acetonitrile as eluent
row,SMILES,chromatographic logP
1,"Nc1nsc(C(=O)O)c1Cl [E-VIII-012, 3-amino-4-chloroisothiazole-5-carboxylic acid]",-0.13
2,"CCOC(=O)c1cc(N(Cc2ccccc2)Cc2ccccc2)ns1 [E-VII-012, ethyl 3-(dibenzylamino)-1,2-thiazole-5-carboxylate]",5.13
3,"O=C(O)c1cc(N(Cc2ccccc2)Cc2ccccc2)ns1 [E-VIII-003, 3-(dibenzylamino)-1,2-thiazole-5-carboxylic acid]",3.35
4,"CCOC(=O)c1snc(N(Cc2ccccc2)Cc2ccccc2)c1C1CC1 [E-VII-024, ethyl 4-cyclopropyl-3-(dibenzylamino)isothiazole-5-carboxylate]",5.91
